# Tested on: Tsp1 gene
# Assay: Tsp1 gene expression in PBMC after 48 hrs stimulation, real-time PCR
# Assay type: cell-based, human
# Details: 10^-6 M Dex, normalised to basal expression
# Description: FIG. 2 depicts the average value of expression level of Tsp1 gene in PBMC in response to 48 hrs stimulation with IDX0150 alone, Dex alone, or IDX0150 and Dex combination as quantified by real-time PCR. The experimental conditions and data handling were as described in FIG. 1 and Example 1.
# FIG. 5 depicts the average value of expression level of Tsp1 gene in PBMC in response to 48 hrs stimulation with IDX0150 alone, Dex alone, or IDX0150 and Dex combination as quantified by real-time PCR. The experimental conditions and data handling were as described in FIG. 4 and Example 1.
# Peripheral blood mononuclear cells (PMBC) were isolated from blood samples of seven steroid resistant asthma or ulcerative colitis patients and ten healthy volunteers by density gradient centrifugation using Ficoll-Paque Plus (Pharmacia Biotech), washed three times in buffered saline solution (PBS), and resuspended in complete RPMI 1640 (Sigma/Gibco) containing 15% heat inactivated fetal bovine serum (FCS) (Gibco, Life Technologies), 100 U/ml penicillin, 100 μg/ml streptomycin (Life Technologies), 2 mM L-glutamine (Sigma), gentamycin 25 ug/ml (Sigma) and 5 mM Hepes (Gibco, Life Technologies). Cells were counted using 0.4% Trypan blue solution (Sigma Aldrich). On average the yield of PBMC was in range of 60-120×10^6 cells per donor sample. […]
structure (smiles),measurement,value
C[C@@H]1C[C@H]2[C@@H]3CCC4=CC(=O)C=C[C@]4(C)[C@@]3(F)[C@@H](O)C[C@]2(C)[C@@]1(O)C(=O)CO [dexamethasone],induction of Tsp1,3-5 fold

# From patent US8574834B2, “Method for predicting the response to a therapy” (Index Pharmaceuticals AB, priority 2007, dated 2013)
